This is an account of results in US20210261512A1, “NOVEL COMPOUNDS” (INFLAZOME LIMITED, priority 2018, published 2021).

The target of series [1] is T1, NLRP3 (Homo sapiens, UniProt Q96P20). Kind of series: Human whole blood IL1β release assay. In kind it is cell-based. Particulars: LPS 1 μg/ml, nigericin 10 μM, IL-1β AlphaLisa, 10 μM top dose (Example 2: top dose of 30 μM), read-out: HWB IC50. An outline of the steps:
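Healthy-donor heparinised human whole blood with 1 μg/ml LPS, compound (8-point half-log dilution, 10 μM top dose unless stated; 0.1% DMSO vehicle) for 3 h at 37 °C, then nigericin 10 μM final for 1 h. Supernatant IL-1β by AlphaLISA; IC50 from 4-parameter variable-slope fit.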
A general note: Alpha assays give light when donor and acceptor beads are brought close together.

Series [2] in a line: PK, intravenous administration. It counts as in vivo. Particulars: rat, plasma, male Sprague Dawley rats, dose about 1 mg/kg; for Vd: read-out: Vdss. Here is the method:
Pharmacokinetic parameters were determined in male Sprague Dawley rats (Vital River Laboratory Animal Technology Co Ltd, Beijing, China, 6-9 weeks old). Animals were maintained under a 12 h light/dark cycle. Animals had free access to food and water, except that orally dosed animals were food deprived overnight prior to the study.
For intravenous administration, compounds were formulated as a solution (in DMSO:water [10:90] or in DMSO:PBS [10:90]) in 2 mL/kg dosing volume and administered via tail vein. For oral administration, compounds were formulated as a solution (in 0.5% methylcellulose in water) in […] dosing volume and administered orally.
Serial blood samples (about 200 μL) were taken from each animal at each of 8 time-points post dose ([…], 0.25, 0.5, 1, 2, 4, 8 and 24 h). Samples were held on ice for no longer than 30 minutes before centrifugation (5,696 rpm (3,000 g) for 15 minutes) for plasma generation. Plasma was frozen on dry ice prior to bioanalysis. PK parameters were generated from LC-MS/MS data using Phoenix WinNonlin 6.3 software.

Series [3] concerns the target T1, NLRP3. The series can be described thus: THP-1 cells pyroptosis assay. On the set-up: Seed THP-1 cells (25,000 cells/well) containing 1.0 μg/ml LPS; host or cells: THP-1. Particulars: LPS 1.0 μg/ml, nigericin 5 μM, resazurin readout, 10 μM top dose (Example 2: top dose of 30 μM). It counts as cell-based. An outline of the steps:
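Pyroptosis induced by 5 μM nigericin (1 h) in LPS-primed (1 μg/ml) THP-1 cells, 25,000/well in serum-free RPMI, after 3 h compound pre-treatment (8 points, 10 μM top unless stated). Surviving cells measured with 100 μM resazurin, Ex 560/Em 590; IC50 via variable-slope 4-parameter regression.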
A general note: Resazurin is reduced to fluorescent resorufin, in cell work by metabolically active cells.

T1 sequence (Q96P20 whole entry): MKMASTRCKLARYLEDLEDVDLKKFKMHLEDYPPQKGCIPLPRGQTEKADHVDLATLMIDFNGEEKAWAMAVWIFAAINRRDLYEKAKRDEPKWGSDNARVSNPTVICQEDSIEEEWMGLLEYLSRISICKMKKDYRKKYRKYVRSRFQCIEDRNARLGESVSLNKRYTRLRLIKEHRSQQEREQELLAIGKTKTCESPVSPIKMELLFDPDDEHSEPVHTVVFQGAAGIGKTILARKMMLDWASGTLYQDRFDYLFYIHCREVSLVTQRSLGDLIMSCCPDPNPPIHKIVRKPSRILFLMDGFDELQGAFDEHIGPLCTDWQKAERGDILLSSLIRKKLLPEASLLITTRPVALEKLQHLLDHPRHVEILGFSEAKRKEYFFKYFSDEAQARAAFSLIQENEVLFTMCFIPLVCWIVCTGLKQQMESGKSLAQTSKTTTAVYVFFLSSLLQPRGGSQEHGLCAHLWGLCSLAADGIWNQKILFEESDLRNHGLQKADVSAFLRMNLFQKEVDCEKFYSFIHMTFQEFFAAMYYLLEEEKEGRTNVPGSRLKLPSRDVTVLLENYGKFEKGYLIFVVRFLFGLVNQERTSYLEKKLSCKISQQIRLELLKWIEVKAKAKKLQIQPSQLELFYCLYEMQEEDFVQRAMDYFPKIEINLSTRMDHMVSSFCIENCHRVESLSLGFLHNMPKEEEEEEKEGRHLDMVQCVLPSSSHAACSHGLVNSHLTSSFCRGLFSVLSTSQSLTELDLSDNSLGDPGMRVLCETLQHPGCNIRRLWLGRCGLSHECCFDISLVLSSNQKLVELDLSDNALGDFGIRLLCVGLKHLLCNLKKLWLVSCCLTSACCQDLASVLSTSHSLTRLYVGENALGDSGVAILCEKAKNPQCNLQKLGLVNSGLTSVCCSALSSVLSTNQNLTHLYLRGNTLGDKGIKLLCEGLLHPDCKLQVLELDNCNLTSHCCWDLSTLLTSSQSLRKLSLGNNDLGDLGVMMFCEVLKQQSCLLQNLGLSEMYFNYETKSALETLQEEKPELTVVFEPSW

The IC50 is the point on the concentration scale where inhibition reaches its midpoint. The term AUC denotes concentration integrated over time. By clearance is commonly meant a measure of how efficiently the substance is removed, as volume per time. Low values mean a low capacity for elimination, high ones a high capacity for elimination. For orientation: half-life means how long it takes for the measured level to halve. Low values mean rapid decline, high ones slow decline. As to `CC(C)c1cc(F)cc(C(C)C)c1Nc1nnc(S(=O)(=O)N2CCC3(CCCN3C)CC2)[nH]1` [Example 247, N-(4-fluoro-2,6-diisopropylphenyl)-5-((i-methyl-1,8-diazaspiro[4.5]decan-8-yl)sulfonyl)-4H-1,2,4-triazol-3-amine], the half-inhibitory concentration (IC50) in series [1] is at most 500 nM. Further, in series [2], the AUC worked out at 253 ng·h/mL, the clearance is 72.5 mL/min/kg, the half-life is 2.72 h and the Vd came to 12.7 L/kg. The same compound displayed a concentration for half-maximal inhibition (IC50) in series [3] of at most 500 nM.
With `COc1cc(-c2cc(F)c3c(c2Nc2nnc(S(=O)(=O)N4CC5(CCN(C)C5)C4)[nH]2)CCC3)ccn1` [Example 299, N-(7-fluoro-5-(2-methoxypyridin-4-yl)-2,3-dihydro-1H-inden-4-yl)-5-((6-methyl-2,6-diazaspiro[3.4]octan-2-yl)sulfonyl)-4H-1,2,4-triazol-3-amine], the IC50 in series [1] was at most 500 nM. Besides, in series [2], the AUC came to 195 ng·h/mL, the clearance was determined as 103 mL/min/kg, the half-life was 1.33 h and the Vd was found to be 5.21 L/kg. In series [3], this compound displayed an IC50 of at most 500 nM.
In the case of `CN1CCC2(C1)CN(S(=O)(=O)c1nnc(Nc3c(-c4ccnc(OC(F)F)c4)ccc4c3CCO4)[nH]1)C2` [Example 212, N-(5-(2-(difluoromethoxy)pyridin-4-yl)-2,3-dihydrobenzofuran-4-yl)-5-((6-methyl-2,6-diazaspiro[3.4]octan-2-yl)sulfonyl)-4H-1,2,4-triazol-3-amine], the IC50 in series [1] was at most 500 nM. In addition, in series [2], the AUC stood at 216 ng·h/mL, the clearance amounted to 76.1 mL/min/kg, the half-life is 0.19 h and the Vd is 0.88 L/kg. In series [3], this compound gave an IC50 of at most 500 nM.
For the compound `O=S(=O)(c1nnc(Nc2c3c(cc4c2CCC4)CCC3)[nH]1)N1CC2(CCN(C3CC3)C2)C1` [Example 245, 5-((6-cyclopropyl-2,6-diazaspiro[3.4]octan-2-yl)sulfonyl)-N-(1,2,3,5,6,7-hexahydro-s-indacen-4-yl)-4H-1,2,4-triazol-3-amine], in series [1], the IC50 was at most 5000 nM. In series [2], the exposure (AUC) is 393 ng·h/mL, the clearance was found to be 49.6 mL/min/kg, the half-life was 0.74 h and the Vd is 1.63 L/kg. In series [3], this compound showed a half-inhibitory concentration (IC50) of at most 500 nM.
With `CNC1CCN(S(=O)(=O)c2nnc(Nc3c4c(cc5c3CCC5)CCC4)[nH]2)CC1` [Example 130, 1-((5-((1,2,3,5,6,7-hexahydro-s-indacen-4-yl)amino)-4H-1,2,4-triazol-3-yl)sulfonyl)-N-methylpiperidin-4-amine], the IC50 in series [1] was at most 5000 nM. Moreover, in series [2], the AUC is 509 ng·h/mL, the clearance stood at 32.8 mL/min/kg, the half-life is 7.8 h and the Vd was found to be 10.6 L/kg. The IC50 in series [3] was at most 1000 nM.
On to `CC(C)c1cc(F)cc(C(C)C)c1Nc1nnc(S(=O)(=O)N2CCC(N(C)C)CC2)[nH]1` [Example 303, 1-((5-((4-fluoro-2,6-diisopropylphenyl)amino)-1H-1,2,4-triazol-3-yl)sulfonyl)-N,N-dimethylpiperidin-4-amine], for which, in series [1], the concentration for half-maximal inhibition (IC50) is at most 5000 nM. For the same compound, in series [2], the AUC came out at 200 ng·h/mL, the clearance was determined as 80.7 mL/min/kg, the half-life was 2.45 h and the Vd is 11.5 L/kg. The same compound returned a 50% inhibitory concentration (IC50) in series [3] of at most 1000 nM.
As for `CN(C)C1CCCN(S(=O)(=O)c2nnc(Nc3c4c(cc5c3CCC5)CCC4)[nH]2)CC1` (stereo not shown) [Example 271, 1-((5-((1,2,3,5,6,7-hexahydro-s-indacen-4-yl)amino)-4H-1,2,4-triazol-3-yl)sulfonyl)-N,N-dimethylazepan-4-amine], the IC50 in series [1] was at most 1000 nM. In series [2], the AUC is 221 ng·h/mL, the clearance was determined as 75 mL/min/kg, the half-life was 3.53 h and the Vd came out at 14.9 L/kg. In series [3], this compound yielded a half-maximal inhibitory concentration (IC50) of at most 500 nM.
For `COc1cc(-c2cc(F)cc(C(C)C)c2Nc2nnc(S(=O)(=O)N3CCC(CN(C)C)C3)[nH]2)ccn1` (stereo not shown) [Example 259, 5-((3-((dimethylamino)methyl)pyrrolidin-1-yl)sulfonyl)-N-(4-fluoro-2-isopropyl-6-(2-methoxypyridin-4-yl)phenyl)-4H-1,2,4-triazol-3-amine], the half-inhibitory concentration (IC50) in series [1] is at most 1000 nM. Also, in series [2], the AUC amounted to 169 ng·h/mL, the clearance was found to be 90.1 mL/min/kg, the half-life is 2.23 h and the Vd was 9.57 L/kg. In series [3], this compound registered an IC50 of at most 500 nM.
Regarding `COc1cc(-c2cc(F)cc(C(C)C)c2Cc2nnc(S(=O)(=O)N3CCC(CN(C)C)C3)[nH]2)ccn1` (stereo not shown) [Example 156, 1-(1-((5-(4-fluoro-2-isopropyl-6-(2-methoxypyridin-4-yl)benzyl)-4H-1,2,4-triazol-3-yl)sulfonyl)pyrrolidin-3-yl)-N,N-dimethylmethanamine], the IC50 in series [1] was at most 5000 nM. For the same compound, in series [2], the AUC was 193 ng·h/mL, the clearance was 103 mL/min/kg, the half-life is 0.4 h and the Vd turned out to be 2.95 L/kg. The IC50 in series [3] is at most 1000 nM.
In the case of `Cn1ccc(S(=O)(=O)c2nnc(Nc3c4c(cc5c3CCC5)CCC4)[nH]2)n1` [Example 176, N-(1,2,3,5,6,7-hexahydro-s-indacen-4-yl)-5-((1-methyl-1H-pyrazol-3-yl)sulfonyl)-4H-1,2,4-triazol-3-amine], the IC50 in series [1] was at most 10000 nM. Further, in series [2], the AUC amounted to 814 ng·h/mL, the clearance stood at 19.1 mL/min/kg, the half-life is 0.473 h and the Vd was determined as 0.41 L/kg. Besides, the IC50 in series [3] is at most 1000 nM.
For `O=S(=O)(c1nnc(Nc2c3c(cc4c2CCC4)CCC3)[nH]1)N1CCC2(CCCN2C2CC2)CC1` [Example 246, 5-((1-cyclopropyl-1,8-diazaspiro[4.5]decan-8-yl)sulfonyl)-N-(1,2,3,5,6,7-hexahydro-s-indacen-4-yl)-4H-1,2,4-triazol-3-amine], the IC50 in series [1] is at most 5000 nM; in series [3], at most 1000 nM.
In the same order, the values of `CN(C)C1CCN(S(=O)(=O)c2nnc(Nc3c(-c4ccncc4)ccc4c3CCC4)[nH]2)CC1` [Example 219, N,N-dimethyl-1-((5-((5-(pyridin-4-yl)-2,3-dihydro-1H-inden-4-yl)amino)-4H-1,2,4-triazol-3-yl)sulfonyl)piperidin-4-amine] are at most 1000 nM and at most 500 nM.
As to `[2H]C([2H])([2H])Oc1cc(-c2ccc3c(c2Nc2nnc(S(=O)(=O)N4CCC(N(C)C)CC4)[nH]2)CCC3)ccn1` [Example 227, 1-((5-((5-(2-(methoxy-d3)pyridin-4-yl)-2,3-dihydro-1H-inden-yl)amino)-4H-1,2,4-triazol-3-yl)sulfonyl)-N,N-dimethylpiperidin-4-amine], the IC50 in series [1] and in series [3] was at most 500 nM in each case.
For `CN1CCCC1CNS(=O)(=O)c1nnc(Nc2c3c(cc4c2CCC4)CCC3)[nH]1` (stereo not shown) [Example 95, 5-((1,2,3,5,6,7-hexahydro-s-indacen-4-yl)amino)-N-((1-methylpyrrolidin-2-yl)methyl)-4H-1,2,4-triazole-3-sulfonamide], the values for the IC50 in series [1] and in series [3] were at most 5000 nM and at most 1000 nM, respectively.
Take `CN(C)C1CCN(S(=O)(=O)c2nnc(Nc3c4c(c(F)c5c3CCC5)CCC4)[nH]2)CC1` [Example 224, 1-((5-((8-fluoro-1,2,3,5,6,7-hexahydro-s-indacen-4-yl)amino)-4H-1,2,4-triazol-3-yl)sulfonyl)-N,N-dimethylpiperidin-4-amine]: the IC50 in series [1] was at most 1000 nM; in series [3], at most 500 nM.
`Cc1cc(-c2ccc3c(c2Nc2nnc(S(=O)(=O)N4CCC(N(C)C)CC4)[nH]2)CCC3)ccn1` [Example 221, N,N-dimethyl-1-((5-((5-(2-methylpyridin-4-yl)-2,3-dihydro-1H-inden-4-yl)amino)-4H-1,2,4-triazol-3-yl)sulfonyl)piperidin-4-amine]: the IC50 in series [1] is at most 5000 nM; in series [3], at most 500 nM.
As to `O=S(=O)(c1nnc(Nc2c3c(cc4c2CCC4)CCC3)[nH]1)N1CC2(CCC(O)C2)C1` (stereo not shown) [Example 346, 2-((5-((1,2,3,5,6,7-hexahydro-s-indacen-4-yl)amino)-4H-1,2,4-triazol-3-yl)sulfonyl)-2-azaspiro[3.4]octan-6-ol], the figures for the IC50 in series [1] and in series [3] were at most 5000 nM and at most 1000 nM, respectively.
For `COc1cc(-c2ccc3c(c2Nc2nnc(S(=O)(=O)N4CCC5(CCCN5C)CC4)[nH]2)CCC3)ccn1` [Example 258, N-(5-(2-methoxypyridin-4-yl)-2,3-dihydro-1H-inden-4-yl)-5-((1-methyl-1,8-diazaspiro[4.5]decan-8-yl)sulfonyl)-4H-1,2,4-triazol-3-amine], the half-inhibitory concentration (IC50) in series [1] was at most 1000 nM; in series [3], at most 500 nM.
